Laboratory results: patent publication US10538535B2, “Antitumoral compounds” (priority 2017, dated 2020)

Assays:
Assay in all cases: cells
HT29 cells = conditions: Homo sapiens, HT-29, 72 h; for CC50: read-out: LC50; for IC (TGI): read-out: TGI
Excerpt: (§1) The aim of this assay is to evaluate the in vitro cytostatic (ability to delay or arrest tumor cell growth) or cytotoxic (ability to kill tumor cells) activity of the samples being tested.
(§2) A colorimetric assay, using sulforhodamine B (SRB) reaction has been adapted to provide a quantitative measurement of cell growth and viability (following the technique described by Skehan et al. J. Natl. Cancer Inst. 1990, 82, 1107-1112). Another colorimetric assay based on 3-(4,5-Dimethylthiazol-2-yl)-2,5-diphenyltetrazolium bromide (MTT) reduction to a purple formazan has been also used to assess the antiproliferative activity (following the technique described by Mosmann et al. J. Immunol. Meth. 1983, 65, 55-63).
(§3) These forms of assays employ 96-well cell culture microplates following the standards of the American National Standards Institute and the Society for Laboratory Automation and Screening (ANSI SLAS 1-2004 (R2012) Oct. 12, 2011. All the cell lines used in this study were obtained from the American Type Culture Collection (ATCC) and derive from different types of human cancer.
(§4) A549, HT29, MDA-MB-231 and PSN1 cells were maintained in Dulbecco's Modified Eagle Medium (DMEM) while PC-3 and 22Rv1 cells were maintained in Roswell Park Memorial Institute Medium (RPMI). All cell lines were supplemented with 10% Fetal Bovine Serum (FBS), 2 mM L-glutamine, 100 U/mL penicillin, and 100 […] at 37° C., 5% CO2 and 98% humidity. For the experiments, cells were harvested from subconfluent cultures using trypsinization and resuspended in fresh medium before counting and plating.
(§5) A549, HT29, MDA-MB-231 and PSN1 cells were seeded in 96 well microtiter plates, at 5000 cells per well in aliquots of 150 μL, and allowed to attach to the plate surface for 18 hours (overnight) in drug free medium. After that, one control (untreated) plate of each cell line was fixed (as described below) and used for time zero reference value. Culture plates were then treated with test compounds (50 μL aliquots of 4× stock solutions in complete culture medium plus 4% DMSO) using ten 2/5 serial dilutions (concentrations ranging from 10 to 0.003 μg/mL) and triplicate cultures (1% final concentration in DMSO). After 72 hours treatment, the antitumor effect was measured by using the SRB methodology: Briefly, cells were washed twice with PBS, fixed for 15 min in 1% glutaraldehyde solution at room temperature, rinsed twice in PBS, and stained in 0.4% SRB solution for 30 min at room temperature. Cells were then rinsed several times with 1% acetic acid solution and air-dried at room temperature.
(§6) Effects on cell growth and survival were estimated by applying the NCI algorithm (Boyd M R and Paull K D. Drug Dev. Res. 1995, 34, 91-104). The values obtained in triplicate cultures were fitted by nonlinear regression to a four-parameters logistic curve by nonlinear regression analysis.

MDA-MB-231 cells = conditions: Homo sapiens, MDA-MB-231, 72 h; for CC50: read-out: LC50; for IC (TGI): read-out: TGI
Excerpt: as §1, §2, §3, §4, §5, §6

PSN1 cells = conditions: Homo sapiens, PSN1, 72 h; for CC50: read-out: LC50; for IC (TGI): read-out: TGI
Excerpt: as §1, §2, §3, §4, §5, §6

A549 cells = conditions: Homo sapiens, A549, 72 h; for CC50: read-out: LC50; for IC (TGI): read-out: TGI
Excerpt: as §1, §2, §3, §4, §5, §6

## COc1ccc2[nH]c3c(c2c1)C[C@H](C(=O)O)N[C@]31CS[C@@H]2c3c(OC(C)=O)c(C)c4c(c3[C@H](COC1=O)N1[C@@H]2[C@H]2c3c(cc(C)c(OC)c3O)C[C@@H]([C@@H]1C#N)N2C)OCO4 [Compound 28-R]
HT29 cells
  GI50: 31 nM
  CC50: > 1190 nM
  IC (TGI): 33.4 nM
MDA-MB-231 cells
  GI50: 19.1 nM
  CC50: 91.9 nM
  IC (TGI): 32.2 nM
PSN1 cells
  GI50: 21.5 nM
  CC50: 66.8 nM
  IC (TGI): 35.8 nM
A549 cells
  GI50: 167 nM
  CC50: > 1190 nM
  IC (TGI): 358 nM

## COc1ccc2[nH]c3c(c2c1)C[C@@H](C(=O)O)N[C@]31CS[C@@H]2c3c(OC(C)=O)c(C)c4c(c3[C@H](COC1=O)N1[C@@H]2[C@H]2c3c(cc(C)c(OC)c3O)C[C@@H]([C@@H]1C#N)N2C)OCO4 [Compound 28-S]
HT29 cells
  GI50: 251 nM
  CC50: 633 nM
  IC (TGI): 346 nM
MDA-MB-231 cells
  GI50: 167 nM
  CC50: 394 nM
  IC (TGI): 251 nM
PSN1 cells
  GI50: 251 nM
  CC50: 692 nM
  IC (TGI): 394 nM
A549 cells
  GI50: 489 nM
  CC50: > 1190 nM
  IC (TGI): > 1190 nM

## COc1ccc2[nH]c3c(c2c1)C[C@H](C(=O)O)N[C@]31CS[C@@H]2c3c(OC(C)=O)c(C)c4c(c3[C@H](COC1=O)N1[C@@H]2[C@H]2c3c(cc(C)c(OC)c3O)C[C@@H]([C@@H]1O)N2C)OCO4 [Compound 29-R]
HT29 cells
  GI50: 30.2 nM
  CC50: > 1210 nM
  IC (TGI): 32.6 nM
MDA-MB-231 cells
  GI50: 16.9 nM
  CC50: 157 nM
  IC (TGI): 27.7 nM
PSN1 cells
  GI50: 30.2 nM
  CC50: 35 nM
  IC (TGI): 31.4 nM
A549 cells
  GI50: 90.5 nM
  CC50: > 1210 nM
  IC (TGI): 193 nM

## COc1ccc2[nH]c3c(c2c1)C[C@@H](C(=O)O)N[C@]31CS[C@@H]2c3c(OC(C)=O)c(C)c4c(c3[C@H](COC1=O)N1[C@@H]2[C@H]2c3c(cc(C)c(OC)c3O)C[C@@H]([C@@H]1O)N2C)OCO4 [Compound 29-S]
HT29 cells
  GI50: 362 nM
  CC50: 832 nM
  IC (TGI): 531 nM
MDA-MB-231 cells
  GI50: 217 nM
  CC50: 688 nM
  IC (TGI): 374 nM
PSN1 cells
  GI50: 386 nM
  CC50: 688 nM
  IC (TGI): 507 nM
A549 cells
  GI50: 615 nM
  CC50: > 1210 nM
  IC (TGI): > 1210 nM

## COc1c(C)cc2c(c1O)[C@@H]1[C@@H]3[C@@H]4SC[C@]5(NCCc6c5oc5ccccc65)C(=O)OC[C@@H](c5c6c(c(C)c(OC(C)=O)c54)OCO6)N3[C@@H](C#N)[C@H](C2)N1C [Compound 31]
HT29 cells
  GI50: 10.5 nM
  CC50: > 131 nM
  IC (TGI): 15.7 nM
MDA-MB-231 cells
  GI50: 8.89 nM
  CC50: 35.3 nM
  IC (TGI): 17 nM
PSN1 cells
  GI50: 6.8 nM
  CC50: 43.1 nM
  IC (TGI): 15.7 nM
A549 cells
  GI50: 19.6 nM
  CC50: 23.5 nM
  IC (TGI): 20.9 nM

## COc1ccc2oc3c(c2c1)CCN[C@]31CS[C@@H]2c3c(OC(C)=O)c(C)c4c(c3[C@H](COC1=O)N1[C@@H]2[C@H]2c3c(cc(C)c(OC)c3O)C[C@@H]([C@@H]1C#N)N2C)OCO4 [Compound 34]
HT29 cells
  GI50: 54.1 nM
  CC50: 125 nM
  IC (TGI): 85.5 nM
MDA-MB-231 cells
  GI50: 45.3 nM
  CC50: 112 nM
  IC (TGI): 76.7 nM
PSN1 cells
  GI50: 54.1 nM
  CC50: > 126 nM
  IC (TGI): 59.1 nM
A549 cells
  GI50: 59.1 nM
  CC50: > 126 nM
  IC (TGI): 80.5 nM

## COc1c(C)cc2c(c1O)[C@@H]1[C@@H]3[C@@H]4SC[C@]5(N[C@@H](CO)Cc6c5oc5ccccc65)C(=O)OC[C@@H](c5c6c(c(C)c(OC(C)=O)c54)OCO6)N3[C@@H](C#N)[C@H](C2)N1C [Compound 38-R]
HT29 cells
  GI50: 0.541 nM
  CC50: > 126 nM
  IC (TGI): 0.591 nM
MDA-MB-231 cells
  GI50: 0.453 nM
  CC50: 2.01 nM
  IC (TGI): 0.843 nM
PSN1 cells; PSN1, 72 hours treatment, SRB
  GI50: 0.654 nM
PSN1 cells
  CC50: 1.76 nM
  IC (TGI): 0.994 nM
A549 cells
  GI50: 0.654 nM
  CC50: > 126 nM
  IC (TGI): 1.04 nM
